Values after ≈ are worked out from the molar mass of the structure shown.
Columns and labels:
[1] = Kinetic solubility determination in PBS pH 7.4; type: physicochemical; conditions: phosphate buffered saline, aqueous buffer, kinetic from dmso stock, PBS pH 7.4, 300 µM nominal, 2 hours at 25°C
Protocol: Section S5: In vitro and in vivo studies
These studies were performed by Contract Research Organisation (CRO) Pharmaron. The methodology provided within the ESI is published within the express permission of this organisation.
The percentage of a compound recovered during the analysis process should be 100 %; any deviation from this value indicates experimental limitations such as unintended potential non-specific binding events to experimental equipment, solubility issues, etc.
In vitro Absorption, Distribution and Metabolism studies methods: […]
The ionisation
Kinetic Solubility Determination in PBS pH 7.4:
The stock solutions of test and control compounds were prepared in DMSO at 10 mM. From this a 300 µM solution was prepared in duplicate in 100 mM Phosphate Buffered Saline (PBS, pH 7.4 ± 0.1). These solutions were then shaken at 1100rpm for 2 hours at 25°C. Following incubation, the samples were filtered using a vacuum manifold. The filtrate was analysed and quantified against a standard of known concentration using liquid chromatography mass -spectrometry (LC -MS/MS). […]
coupled to a Sciex 4500 mass spectrometer (AB Inc., Illinois) Separation of compounds was achieved using an XSelect HSS T3 column (2.5µm, 50 x 2.1 mm) (Waters Ltd., Wilmslow) at a temperature of 40°C and a binary mobile phase gradient at a flow rate of 0.8 mL/min. […]

[2] = In vivo pharmacokinetic study, intravenous; design: species or system female CD-1 mice; conditions: IV 1 mg/kg
Protocol: In vitro Absorption, Distribution and Metabolism results […]
In vivo Pharmacokinetic study methods
SSA 5 was dosed at 1 mg/kg to female CD -1 mice (n=3) via an intravenous tail vein bolus administration, dose formulation was a solution in 2% DMSO/98% Water. Blood was sampled from the dorsal metatarsal vein at each time point (n=8) and added to tubes containing anticoagulant K2-EDTA. Blood samples were extracted by protein precipitation. Blood concentrations were calculated through UPLC-MS/MS techniques, with internal standard. The lower limit of quantitation was 6.4 nM. PK parameters were calculated using Phoenix WinNonlin version 8.3.

[3] = mouse, whole blood, blood, female CD-1 mice

In the case of `O=C(O)CNc1c(Nc2ccc(C(F)(F)F)cc2)c(=O)c1=O` [SSA 5], the solubility at 2 h [1] is reported as 273 µM (≈ 85.8 µg/mL), the “Cl Blood as % LBF” value ([2]; female CD-1 mice) is reported as > 100 % LBF and the concentration at 2 h ([2]; female, CD-1, mouse, whole blood, 2 hours following dosing, read-out: blood level at last detected time) is reported as 8.1 nM. For the same compound, the clearance ([2]; mouse, whole blood, female CD-1 mice, read-out: Cl Blood) was 162 ± 28 mL/min/kg, the Vd ([2]; mouse, whole blood, female CD-1 mice, read-out: Vss) was 3.1 ± 1.7 L/kg and the Cmax ([2]; mouse, whole blood, blood, DMSO:H2O 2:98, female CD-1 mice) was 1200 ± 208 nM. It also gave an AUC(0-inf) [2, 3] of 0.335 ± 0.06 µM·h, an AUC(0-t) [2, 3] of 0.327 ± 0.057 µM·h and a Tmax [2, 3] of 4.98 min. It also gave a half-life ([2]; mouse, whole blood, terminal half-life, female CD-1 mice) of 43.8 ± 36.6 min.

Source: PMC12169104, “Towards the development of supramolecular self-associating amphiphiles as antibiofilm agents against Pseudomonas aeruginosa and Candida albicans biofilms” (Journal of Materials Chemistry. B, 2025)
